Assay [1] deals with T1, human adenosine A2B receptor (Homo sapiens, UniProt P29275).
T1 construct: expressed in transfected cells; host or cells: CHOK1 cells
T1 sequence (P29275 1-332): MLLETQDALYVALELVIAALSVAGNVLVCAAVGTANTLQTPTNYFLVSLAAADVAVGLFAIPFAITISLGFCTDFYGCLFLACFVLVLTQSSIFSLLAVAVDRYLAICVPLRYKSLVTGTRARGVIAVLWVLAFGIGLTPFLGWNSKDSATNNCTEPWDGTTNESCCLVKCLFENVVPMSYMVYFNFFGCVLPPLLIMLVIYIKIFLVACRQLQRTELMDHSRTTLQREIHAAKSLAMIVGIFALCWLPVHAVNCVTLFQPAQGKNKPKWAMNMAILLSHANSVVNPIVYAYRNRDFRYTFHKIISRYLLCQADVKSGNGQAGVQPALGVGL
Briefly: Inhibition of NECA-stimulated production of cAMP in adenosine A2B receptor-expressing cells. The conditions noted are these: read-out: I C50(nM) A2B. Type of assay: cell-based. Here is the method: Experiment of Inhibition of NECA-Stimulated Production of cAMP in Adenosine A2B Receptor-Expressing Cells
CHOK1 cells where human adenosine A2B receptor had been expressed in excess were plated onto a 24-well plate at a density of 1.5×10^5 cells/well, cultured overnight, and used in the experiment. […] That is, the adhering cells were washed twice with 2 ml/well Krebs-Ringer buffer solution (containing 0.1% BSA; pH 7.4) and pre-incubated for 30 minutes in a volume of 0.5 ml/well. […] After pre-incubation for 15 minutes, the reaction was terminated with 0.1 N HCl in a volume of 300 μl/well. Measurement of intracellular cAMP was carried out using a cAMP enzyme immunoassay kit produced by Amersham.

The target in assay [2] is T2, human adenosine A1 receptor (Homo sapiens, UniProt P30542).
T2 construct: expressed in transfected cells; host or cells: CHOK1 cells (membrane sample)
T2 sequence (P30542 1-326): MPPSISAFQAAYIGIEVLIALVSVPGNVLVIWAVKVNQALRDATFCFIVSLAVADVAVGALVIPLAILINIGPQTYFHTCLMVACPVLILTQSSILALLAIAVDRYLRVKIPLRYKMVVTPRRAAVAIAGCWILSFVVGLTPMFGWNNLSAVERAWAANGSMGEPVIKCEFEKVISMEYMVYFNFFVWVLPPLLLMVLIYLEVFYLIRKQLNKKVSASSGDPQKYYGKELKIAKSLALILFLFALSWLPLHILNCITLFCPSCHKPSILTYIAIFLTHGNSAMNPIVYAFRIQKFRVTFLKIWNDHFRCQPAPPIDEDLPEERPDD
Briefly: Measurement of the binding ability to adenosine A1 receptor (3H-CCPA displacement, CHOK1 membranes). The conditions noted are these: read-out: K1(nM) A1. Here is the method: Measurement of the Binding Ability to Adenosine A1 Receptor
A human adenosine A1 receptor cDNA was expressed in excess in CHOK1 cells, and this membrane sample was suspended at a protein concentration of 66.7 μg/ml in 20 mM HEPES buffer, pH 7.4 (10 mM MgCl2, 100 mM NaCl). To 0.45 ml of this membrane sample suspension were added 0.025 ml of 60 nM tritium-labeled chlorocyclopentyl adenosine (^3H—CCPA, from NEN Ltd.) and 0.025 ml of test compound. This mixture was left at 30° C. for 120 minutes, filtered rapidly under suction through a glass fiber filter (GF/B, from Whatman), and immediately washed twice with 5 ml of 50 mM water-cooled Tris-HCl buffer. Thereafter, the glass fiber filter was transferred to a vial, scintillator was added thereto, and the radioactivity on the filter was measured by a liquid scintillation counter. […]
In the above formula, the total binding means ^3H-CCPA-bound radioactivity in the absence of the test compound; the nonspecific binding means ^3H-CCPA-bound radioactivity in the presence of 100 μM RPIA ([R]-[1-methyl-2-phenylethyl] adenosine); and the binding in the presence of the test compound means ^3H-CCPA-bound radioactivity in the presence of the test compound at predetermined concentrations. The inhibition constant (Ki value) in the table was determined from the formula of Cheng-Prusoff.

The next assay concerns the target T3, adenosine A2A receptor (Homo sapiens, UniProt P29274).
T3 construct: purchased Receptor Biology Inc
The assay is described as follows: Measurement of the binding ability to adenosine A2A receptor (3H-CGS21680 displacement, membrane sample). Particulars: read-out: K1(nM) A2A. Here is the method:
Measurement of the Binding Ability to Adenosine A2A Receptor
An experiment of inhibition of binding to adenosine A2A receptor was conducted using a membrane sample (Receptor Biology Inc.) where an adenosine A2A receptor cDNA was expressed in excess. This membrane sample was suspended at a protein concentration of 22.2 μg/ml in 20 mM HEPES buffer, pH 7.4 (10 mM MgCl2 and 100 mM NaCl). To 0.45 ml of this membrane sample suspension were added 0.025 ml of 500 nM tritium-labeled 2-p-[2-carboxyethyl]phenetylamino-5′-N-ethylarboxyamide adenosine (^3H-CGS21680, from NEN) and 0.025 ml of test compound. […] Thereafter, the glass fiber filter was transferred to a vial, scintillator was added thereto, and the radioactivity on the filter was measured by a liquid scintillation counter. […]
Here, the total binding means ^3H-CGS21680-bound radioactivity in the […] of the test compound; the nonspecific binding means ^3H-CGS21680-bound radioactivity in the presence of 100 μM RPIA; and the binding in the […] of the test compound means ^3H-CGS21680-bound radioactivity in the […] of the test compound at predetermined concentrations. The inhibition constant (Ki value) in the table was determined from the formula of Cheng-Prusoff.

T3 sequence (P29274 whole entry): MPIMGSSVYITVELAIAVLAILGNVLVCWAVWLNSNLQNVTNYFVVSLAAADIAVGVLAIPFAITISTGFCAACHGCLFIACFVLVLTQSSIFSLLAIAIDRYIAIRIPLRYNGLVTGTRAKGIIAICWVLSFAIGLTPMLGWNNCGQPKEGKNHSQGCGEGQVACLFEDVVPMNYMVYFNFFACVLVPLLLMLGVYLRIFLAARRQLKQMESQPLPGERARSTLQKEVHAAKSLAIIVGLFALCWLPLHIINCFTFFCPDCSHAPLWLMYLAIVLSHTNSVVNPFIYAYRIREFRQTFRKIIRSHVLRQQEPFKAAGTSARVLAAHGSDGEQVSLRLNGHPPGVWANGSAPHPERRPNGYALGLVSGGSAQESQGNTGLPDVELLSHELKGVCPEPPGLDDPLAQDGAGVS

As to `Nc1nc(-c2ccco2)c(-c2ccncc2)c(=O)[nH]1` [Example 2, 2-Amino-6-(2-furyl)-5-(4-pyridyl)-3,4-dihydro-4-pyrimidinone], the IC50 in assay [1] was found to be 256 nM. In addition, the Ki was found to be 1110 nM in assay [2] and 345 nM on adenosine A2A receptor.

On to `Cn1c(N)nc(-c2ccco2)c(-c2ccncc2)c1=O` [Example 7, 2-Amino-6-(2-furyl)-3-methyl-5-(4-pyridyl)-3,4-dihydro-4-pyrimidinone], for which the IC50 in assay [1] was 71 nM. Further, the values for the Ki (in assay [2]; at adenosine A2A receptor) were 966 nM and 493 nM, respectively.

The values above are taken from patent US7160892B2, “Pyrimidone compounds and pharmaceutical compositions containing the same” (Eisai Co., Ltd., priority 2001, dated 2007).
